{"source": "PubChem BioAssay AID651733", "about": "(The Scripps Research Institute Molecular Screening Center, 2012)", "note": "The source made the active and inactive calls. How the calls were made is not given here."}
{"target": "Perilipin-5 (Homo sapiens) + 1-acylglycerol-3-phosphate O-acyltransferase ABHD5 (Homo sapiens) (UniProt Q00G26+Q8WTS1)", "sequence (Q00G26 whole entry, looked up, the tested form may be a part)": "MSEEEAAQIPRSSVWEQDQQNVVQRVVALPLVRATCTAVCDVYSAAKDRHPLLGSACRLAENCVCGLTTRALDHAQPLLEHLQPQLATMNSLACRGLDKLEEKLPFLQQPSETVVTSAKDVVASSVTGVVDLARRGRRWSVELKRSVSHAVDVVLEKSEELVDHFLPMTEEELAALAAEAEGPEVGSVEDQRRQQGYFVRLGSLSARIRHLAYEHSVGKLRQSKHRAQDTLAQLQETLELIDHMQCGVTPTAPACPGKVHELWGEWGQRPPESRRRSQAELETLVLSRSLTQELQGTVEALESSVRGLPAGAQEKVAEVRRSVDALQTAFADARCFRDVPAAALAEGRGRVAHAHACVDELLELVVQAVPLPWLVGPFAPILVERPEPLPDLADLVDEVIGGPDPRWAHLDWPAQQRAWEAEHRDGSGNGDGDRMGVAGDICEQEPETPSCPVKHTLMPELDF", "sequence (Q8WTS1 whole entry, looked up, the tested form may be a part)": "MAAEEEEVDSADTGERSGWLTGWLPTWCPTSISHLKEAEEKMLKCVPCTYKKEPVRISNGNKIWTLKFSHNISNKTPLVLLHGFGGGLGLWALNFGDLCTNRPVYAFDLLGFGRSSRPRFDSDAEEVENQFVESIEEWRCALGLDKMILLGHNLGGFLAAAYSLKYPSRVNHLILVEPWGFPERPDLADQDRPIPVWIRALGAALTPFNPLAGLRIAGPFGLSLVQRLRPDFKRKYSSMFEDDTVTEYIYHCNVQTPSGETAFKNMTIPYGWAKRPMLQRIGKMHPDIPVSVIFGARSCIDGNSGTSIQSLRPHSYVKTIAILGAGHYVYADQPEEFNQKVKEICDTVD", "assay": "blockers of ABHD5 binding to perilipin-5 – cell lysate, luminescence, proteins expressed in HEK293T, dose response (AID 651733);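 further: split Gaussia princeps luciferase complementation between ABHD5 and MLDP fusion proteins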", "details": "ABHD5-PLIN5 interaction"}
{"smiles": "COC(=O)c1cc(=O)n(Cc2ccco2)c(=Nc2ccc(F)cc2)s1", "IC50": "3.58 µM"}
{"smiles": "O=c1c(-c2ccco2)nc2ccccc2n1C(CCc1ccccc1)c1nc2ccccc2[nH]1", "note": "(stereo unspecified)", "IC50": "5.14 µM"}
{"smiles": "CCOc1cc(N)c(Cl)cc1C(=O)NCC1CN(Cc2ccc(F)cc2)CCO1", "note": "(stereo unspecified)", "IC50": "1.93 µM"}
{"smiles": "O=C(NCc1ccccc1)C(c1ccc(C(F)(F)F)cc1)n1c(=O)c(-c2ccco2)nc2ccccc21", "note": "(stereo unspecified)", "IC50": "3.15 µM"}
{"smiles": "COc1cccc2sc(N(CCCN(C)C)C(=O)COc3ccc(Cl)cc3)nc12", "IC50": "inactive"}
{"smiles": "CCOC(=O)N1CCN(C(=O)C[C@@H]2C[C@@]3(C(=O)OCC)CCC=C3N(Cc3ccc(Cl)cc3Cl)C2=O)CC1", "IC50": "7.45 µM"}
{"smiles": "O=C1NC(=O)N(c2ccccc2F)C(=O)/C1=C/c1ccc(Oc2ccc([N+](=O)[O-])cn2)cc1", "IC50": "7.53 µM"}
{"smiles": "O=C(/C(=C/O)N=Nc1ccc(Cl)cc1)c1ccncc1", "IC50": "9.32 µM"}
{"smiles": "O=C(NC1CCCCC1)C(c1cccc2ccccc12)n1c(=O)c(-c2ccco2)nc2ccccc21", "note": "(stereo unspecified)", "IC50": "2.33 µM"}
{"smiles": "CN(C)CCOc1ccc(-c2c(-c3ccccc3)sc3ccccc23)cc1", "IC50": "inactive"}
{"smiles": "COc1ccc(-c2cc(N)n(S(=O)(=O)c3c(F)c(F)c(F)c(F)c3F)n2)cc1OC", "IC50": "inactive"}
{"smiles": "NC(=O)C(C(=O)/C=C/c1ccc(Cl)cc1)=C1SCCS1", "IC50": "inactive"}
{"smiles": "CC1CN(Cc2c(O)ccc3c2oc(=O)c2ccccc23)CC(C)O1", "note": "(stereo unspecified)", "IC50": "4.77 µM"}
{"smiles": "CC(C)(C)NC(=O)C(c1ccc(C(F)(F)F)cc1)n1c(=O)c(-c2ccco2)nc2ccccc21", "note": "(stereo unspecified)", "IC50": "6.67 µM"}
{"smiles": "CC1(C)C2CCC(CN=C(N)CSS(=O)(=O)O)C1C2", "note": "(stereo unspecified)", "IC50": "4.64 µM"}
{"smiles": "CC(C)(C)NC(=O)C(C1CC1)n1c(=O)c(-c2ccco2)nc2ccccc21", "note": "(stereo unspecified)", "IC50": "7.1 µM"}
{"smiles": "CC1=CC(C)(C)Nc2ccc(OC(=O)C(C)N3C(=O)c4ccccc4C3=O)cc21", "note": "(stereo unspecified)", "IC50": "3.65 µM"}
{"smiles": "CN1CCC[C@@H]1CCO[C@](C)(c1ccccc1)c1ccc(Cl)cc1", "IC50": "6.93 µM"}
{"smiles": "CSC(=Nc1ccccc1)N=C(SCc1ccccc1)N(C)C", "IC50": "1.19 µM"}
{"smiles": "Cc1cccc(C)c1NC(=O)C(c1ccccc1F)n1c(=O)c(-c2ccco2)nc2ccccc21", "note": "(stereo unspecified)", "IC50": "5.65 µM"}
{"smiles": "C#CCN(C[C@@H]1[C@@H](OC(=O)NCc2ccc(OC)c(OC)c2)[C@@H](OC(=O)NCc2ccc(OC)c(OC)c2)Cn2c(=O)ccc(=O)n21)S(=O)(=O)c1ccc(C)cc1", "IC50": "5.74 µM"}
{"smiles": "O=C(/C=C/c1ccc2c(c1)OCCCO2)c1ccccc1O", "IC50": "5.14 µM"}
{"smiles": "CC(C)c1nnc(NC(=O)c2nc(S(=O)(=O)Cc3ccc(F)cc3)ncc2Cl)s1", "IC50": "3.45 µM"}
{"smiles": "CN(C)CCCNC(=O)c1ccc(-c2nc(-c3ccc(Cl)cc3)cs2)cc1", "IC50": "inactive"}
{"smiles": "CC1CCN(S(=O)(=O)c2ccc(NC(=O)Cc3ccccc3)cc2)CC1", "IC50": "5.73 µM"}
{"smiles": "CCN(CC)CCOCCOC(=O)C1(c2ccccc2)CCCC1", "IC50": "2.17 µM"}
{"smiles": "COc1ccc(C)c2sc(N(CCN(C)C)C(=O)/C=C/c3cccs3)nc12", "IC50": "> 13.3 µM (inactive)"}
{"smiles": "COc1cc(C)c2sc3ccccc3c(=O)c2c1NCCN(C)C", "IC50": "3.94 µM"}
{"smiles": "CC(C)(C)NC(=O)C(c1cccc2ccccc12)n1c(=O)c(-c2ccco2)nc2ccccc21", "note": "(stereo unspecified)", "IC50": "4.38 µM"}
{"smiles": "C#CCN(C[C@@H]1[C@@H](OC(=O)NC2CCCC2)[C@@H](OC(=O)NC2CCCC2)Cn2c(=O)ccc(=O)n21)S(=O)(=O)c1ccc(C)cc1", "IC50": "7.83 µM"}
{"smiles": "Cc1cc(C)c2nc(NNC(=O)c3ccc(S(=O)(=O)N4CCCC(C)C4)cc3)sc2c1", "note": "(stereo unspecified)", "IC50": "1.88 µM"}
